# From ChEMBL document CHEMBL1201862, “PubChem BioAssay data set” (2004)
# The source made the active and inactive calls.
# How the values were obtained:
# [1] = target: T1, Short transient receptor potential channel 4 (Mus musculus, UniProt Q9QUQ5); assay: calcium entry via TRPC4 opening agents – cell-based, HEK293 TRPC4/mu-opioid, Fluo-4 calcium, dose response (AID 434937); assay type: functional
# T1 sequence (Q9QUQ5 whole entry): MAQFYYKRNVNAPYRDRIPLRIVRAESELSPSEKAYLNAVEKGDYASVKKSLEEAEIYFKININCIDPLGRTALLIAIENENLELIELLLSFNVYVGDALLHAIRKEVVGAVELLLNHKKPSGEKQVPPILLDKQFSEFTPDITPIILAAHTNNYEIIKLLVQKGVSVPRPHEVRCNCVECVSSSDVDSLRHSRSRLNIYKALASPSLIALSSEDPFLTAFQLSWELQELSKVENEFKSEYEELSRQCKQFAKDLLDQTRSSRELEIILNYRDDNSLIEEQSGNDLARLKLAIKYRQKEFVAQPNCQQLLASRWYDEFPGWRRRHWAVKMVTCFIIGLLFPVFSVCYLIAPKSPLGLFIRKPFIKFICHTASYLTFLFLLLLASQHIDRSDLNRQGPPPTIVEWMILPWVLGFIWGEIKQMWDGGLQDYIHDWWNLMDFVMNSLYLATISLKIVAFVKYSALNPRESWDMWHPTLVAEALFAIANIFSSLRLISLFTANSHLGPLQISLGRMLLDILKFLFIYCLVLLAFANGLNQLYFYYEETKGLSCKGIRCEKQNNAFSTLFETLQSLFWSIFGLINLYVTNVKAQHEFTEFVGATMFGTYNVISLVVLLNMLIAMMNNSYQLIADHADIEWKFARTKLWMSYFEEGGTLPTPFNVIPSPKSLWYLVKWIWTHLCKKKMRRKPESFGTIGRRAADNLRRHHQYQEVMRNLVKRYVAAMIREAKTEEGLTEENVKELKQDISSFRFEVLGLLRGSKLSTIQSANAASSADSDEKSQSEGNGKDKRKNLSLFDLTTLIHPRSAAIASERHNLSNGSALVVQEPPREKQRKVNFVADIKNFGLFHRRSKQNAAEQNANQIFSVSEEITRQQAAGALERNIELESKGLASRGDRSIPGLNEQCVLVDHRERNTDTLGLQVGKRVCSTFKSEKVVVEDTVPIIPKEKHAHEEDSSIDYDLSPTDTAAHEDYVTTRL
# [2] = Luminescence Cell-Based Dose Response HTS to Identify Activators of Luciferase Translation or Activity in H4 […] Cells. [Related pubchem assays: 1829 (Project Summary), 1814 (Primary HTS)]; assay type: functional
# [3] = tested on: H4; assay: Luminescence Cell-Based Dose Response HTS to Identify Activators of 5'UTR Stem-Loop Driven Prion Protein mRNA Translation in H4 Neuroglioblastoma Cells. [Related pubchem assays: 1829 (Project Summary), 1814 (Primary HTS)]; assay type: functional; settings: Homo sapiens
# [4] = Luminescence Cell-Based Dose Confirmation HTS to Identify Activators of 5'UTR Stem-Loop Driven Alpha-Synuclein mRNA Translation in H4 Neuroglioblastoma Cells. [Related pubchem assays: 1829 (Project Summary), 1814 (Primary HTS)]; assay type: functional
# [5] = target: T2, High affinity choline transporter 1 (Homo sapiens, UniProt Q9GZV3); assay: human choline transporter blockers, potency – cell-based, 5-point CRC, membrane potential dye, dose response (AID 504840); assay type: functional
# T2 sequence (Q9GZV3 whole entry): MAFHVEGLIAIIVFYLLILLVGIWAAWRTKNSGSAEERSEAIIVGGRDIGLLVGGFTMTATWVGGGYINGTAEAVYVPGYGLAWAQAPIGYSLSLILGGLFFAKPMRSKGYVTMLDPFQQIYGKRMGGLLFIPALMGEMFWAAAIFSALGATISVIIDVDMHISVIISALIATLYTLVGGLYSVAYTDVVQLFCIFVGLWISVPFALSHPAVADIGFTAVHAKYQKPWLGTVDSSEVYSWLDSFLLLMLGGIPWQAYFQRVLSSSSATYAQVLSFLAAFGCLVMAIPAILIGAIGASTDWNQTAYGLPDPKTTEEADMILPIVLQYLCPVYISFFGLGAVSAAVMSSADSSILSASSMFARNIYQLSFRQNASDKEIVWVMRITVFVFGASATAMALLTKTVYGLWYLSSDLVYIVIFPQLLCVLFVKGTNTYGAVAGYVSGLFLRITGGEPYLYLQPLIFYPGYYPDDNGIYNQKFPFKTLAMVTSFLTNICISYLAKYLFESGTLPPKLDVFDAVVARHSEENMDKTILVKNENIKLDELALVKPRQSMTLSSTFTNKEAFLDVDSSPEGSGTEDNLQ
# [6] = target: T3, Streptokinase A (Streptococcus pyogenes serotype M1, UniProt P10520); assay: viability-normalized secreted streptokinase activity reduction – plasminogen activation absorbance, OD405, dose response (AID 1914); assay type: functional, Streptococcus pyogenes M1 GAS;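 note: secreted streptokinase activity via plasminogen activation per viability signal from cell pellet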
# T3 sequence (P10520 whole entry): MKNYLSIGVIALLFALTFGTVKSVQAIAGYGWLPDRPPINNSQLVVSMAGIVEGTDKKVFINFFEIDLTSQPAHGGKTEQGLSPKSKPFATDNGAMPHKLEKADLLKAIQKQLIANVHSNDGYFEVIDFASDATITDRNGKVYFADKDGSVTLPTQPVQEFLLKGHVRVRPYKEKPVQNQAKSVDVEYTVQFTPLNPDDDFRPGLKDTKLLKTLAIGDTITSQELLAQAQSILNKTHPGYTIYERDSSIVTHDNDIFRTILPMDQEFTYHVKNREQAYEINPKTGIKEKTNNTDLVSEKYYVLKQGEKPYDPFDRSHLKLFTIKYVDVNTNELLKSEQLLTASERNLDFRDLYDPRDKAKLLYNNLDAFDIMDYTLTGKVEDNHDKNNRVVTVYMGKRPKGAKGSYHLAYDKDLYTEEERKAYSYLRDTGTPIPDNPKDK
# [7] = tested on: Streptococcus; assay: GAS UMAA2166 growth inhibition – luminescence, BacTiterGlo, counter-screen for streptokinase expression inhibitor project, dose response (AID 1915); assay type: functional, organism-based;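 note: potency for reduction of bacterial viability or growth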
# [8] = tested on: Streptococcus sp. 'group A'; assay: Streptococcus pyogenes SK(-)GAS viability under kanamycin – luminescence, BacTiterGlo, confirmation, counter-screen for streptokinase expression inhibitor project, dose response (AID 1900); assay type: functional, organism-based
# [9] = tested on: INS1; assay: INS-1E survival protection against cytokine death – cell-based, luminescence, retest, dose response (AID 449756); assay type: functional; settings: Rattus norvegicus;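 note: cell death triggered by IL-1 beta plus TNF-alpha plus IFN-gamma mixture; protective hits raise ATP signal compared with cytokine alone wells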
# [10] = Trypanosoma cruzi growth suppression in host cells – NIH3T3 host cells, beta-gal luminescence, confirmation (AID 2044); assay type: functional, cell-based;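 note: intracellular parasites grown in NIH/3T3 mouse fibroblasts as host cells; luminescent beta-galactosidase reporter signal from transgenic T. cruzi replicating inside host cells; inhibitors lower the luminescence signal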
# [11] = NIH3T3 cell viability loss – ATP luminescence, mouse fibroblasts, counter-screen, dose response (AID 2010); assay type: functional, cell-based;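 note: cells exposed to compound for about 90 hours before reading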
# [12] = target: Fatty acid synthase (Homo sapiens, UniProt P49327); assay: inhibition of human FAS-TE enzyme activity – biochemical, kinetic fluorescence intensity, dose response (AID 624326); assay type: functional;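 note: rate of fluorescence rise from hydrolysis of a fluorogenic O-methyl fluorescein ester substrate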
# [13] = target: T4, Heat shock factor protein 1 (Mus musculus, UniProt P38532); assay: enhancement of HSF1-driven luciferase signal – cell-based, NIH3T3, luminescence, dose retest, confirmation (AID 435004); assay type: functional;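 note: stress induced by proteasome inhibitor MG132 added 30 min after compound; luciferase reporter driven by HSF1 response element in NIH3T3 cells; actives raise luminescence as potentiators of the MG132 stress response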
# T4 sequence (P38532 whole entry): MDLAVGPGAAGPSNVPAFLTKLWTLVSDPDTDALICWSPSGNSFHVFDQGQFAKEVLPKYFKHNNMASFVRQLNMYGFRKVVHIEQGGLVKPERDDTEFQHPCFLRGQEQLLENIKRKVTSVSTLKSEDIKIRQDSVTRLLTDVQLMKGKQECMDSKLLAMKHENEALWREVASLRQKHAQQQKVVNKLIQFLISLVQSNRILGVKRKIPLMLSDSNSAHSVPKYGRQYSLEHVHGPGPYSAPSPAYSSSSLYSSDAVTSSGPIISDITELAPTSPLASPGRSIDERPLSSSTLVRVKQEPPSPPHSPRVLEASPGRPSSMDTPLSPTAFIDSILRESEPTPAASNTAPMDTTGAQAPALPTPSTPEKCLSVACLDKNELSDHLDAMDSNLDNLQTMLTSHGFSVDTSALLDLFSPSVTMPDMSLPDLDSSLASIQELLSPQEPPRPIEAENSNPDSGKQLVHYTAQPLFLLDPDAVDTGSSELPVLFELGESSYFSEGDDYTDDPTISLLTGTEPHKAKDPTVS
# [14] = blockers of HIV-1 ZM109 envelope-driven cell-cell fusion – HeLa effector, CEM target cells, luciferase, cherry-pick, dose response (AID 652058); assay type: functional, cell-based;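 note: luciferase signal from HIV-1 Env mediated cell-cell fusion of effector and target cells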
# [15] = target: FAD-linked sulfhydryl oxidase ALR (Homo sapiens, UniProt P55789); assay: ALR-catalysed DTT oxidation blockers – biochemical, H2O2 detection, luminescence, cherry-pick, dose response (AID 493248)
# [16] = target: T5, Corticotropin-releasing factor receptor 2/Corticotropin-releasing factor-binding protein (Homo sapiens, UniProt P24387+Q13324); assay: activators of CRF receptor 2 with binding protein – uHTS hits, confirmation (AID 602473); assay type: functional; settings: read-out: EC50_Mean
# T5 sequence (Q13324 whole entry): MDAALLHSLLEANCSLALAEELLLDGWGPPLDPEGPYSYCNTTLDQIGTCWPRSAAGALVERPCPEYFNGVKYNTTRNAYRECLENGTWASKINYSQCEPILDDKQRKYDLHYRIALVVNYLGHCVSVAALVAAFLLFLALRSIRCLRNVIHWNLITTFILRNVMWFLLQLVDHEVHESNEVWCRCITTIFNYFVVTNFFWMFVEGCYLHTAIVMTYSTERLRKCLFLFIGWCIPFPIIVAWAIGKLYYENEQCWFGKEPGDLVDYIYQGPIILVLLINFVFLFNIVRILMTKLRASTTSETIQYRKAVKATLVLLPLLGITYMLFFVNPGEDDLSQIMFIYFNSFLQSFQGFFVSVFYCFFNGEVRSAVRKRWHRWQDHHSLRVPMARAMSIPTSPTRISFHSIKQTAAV
# T5 sequence (P24387 whole entry): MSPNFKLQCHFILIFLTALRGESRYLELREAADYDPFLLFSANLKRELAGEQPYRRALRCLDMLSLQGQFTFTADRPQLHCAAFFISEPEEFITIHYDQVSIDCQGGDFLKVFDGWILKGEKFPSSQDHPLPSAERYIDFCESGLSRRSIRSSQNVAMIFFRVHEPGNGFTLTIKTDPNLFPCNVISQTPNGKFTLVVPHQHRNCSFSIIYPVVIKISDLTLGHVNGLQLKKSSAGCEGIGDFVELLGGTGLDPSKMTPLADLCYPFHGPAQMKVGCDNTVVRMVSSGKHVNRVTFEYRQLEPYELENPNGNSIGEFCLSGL
# [17] = blockers of HIV-1 envelope-mediated cell-cell fusion – cherry-pick, dose response (AID 652057); assay type: functional, cell-based
# [18] = HIV-1 AD8 envelope cell-cell fusion blockers – cherry-pick, dose response (AID 652062); assay type: functional, cell-based;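 note: luciferase signal from cell-cell fusion driven by HIV-1 clade B AD8 Env; potency is for inhibitors of fusion seen as a drop in luminescence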
# Fatty acid synthase, sequence (P49327 whole entry): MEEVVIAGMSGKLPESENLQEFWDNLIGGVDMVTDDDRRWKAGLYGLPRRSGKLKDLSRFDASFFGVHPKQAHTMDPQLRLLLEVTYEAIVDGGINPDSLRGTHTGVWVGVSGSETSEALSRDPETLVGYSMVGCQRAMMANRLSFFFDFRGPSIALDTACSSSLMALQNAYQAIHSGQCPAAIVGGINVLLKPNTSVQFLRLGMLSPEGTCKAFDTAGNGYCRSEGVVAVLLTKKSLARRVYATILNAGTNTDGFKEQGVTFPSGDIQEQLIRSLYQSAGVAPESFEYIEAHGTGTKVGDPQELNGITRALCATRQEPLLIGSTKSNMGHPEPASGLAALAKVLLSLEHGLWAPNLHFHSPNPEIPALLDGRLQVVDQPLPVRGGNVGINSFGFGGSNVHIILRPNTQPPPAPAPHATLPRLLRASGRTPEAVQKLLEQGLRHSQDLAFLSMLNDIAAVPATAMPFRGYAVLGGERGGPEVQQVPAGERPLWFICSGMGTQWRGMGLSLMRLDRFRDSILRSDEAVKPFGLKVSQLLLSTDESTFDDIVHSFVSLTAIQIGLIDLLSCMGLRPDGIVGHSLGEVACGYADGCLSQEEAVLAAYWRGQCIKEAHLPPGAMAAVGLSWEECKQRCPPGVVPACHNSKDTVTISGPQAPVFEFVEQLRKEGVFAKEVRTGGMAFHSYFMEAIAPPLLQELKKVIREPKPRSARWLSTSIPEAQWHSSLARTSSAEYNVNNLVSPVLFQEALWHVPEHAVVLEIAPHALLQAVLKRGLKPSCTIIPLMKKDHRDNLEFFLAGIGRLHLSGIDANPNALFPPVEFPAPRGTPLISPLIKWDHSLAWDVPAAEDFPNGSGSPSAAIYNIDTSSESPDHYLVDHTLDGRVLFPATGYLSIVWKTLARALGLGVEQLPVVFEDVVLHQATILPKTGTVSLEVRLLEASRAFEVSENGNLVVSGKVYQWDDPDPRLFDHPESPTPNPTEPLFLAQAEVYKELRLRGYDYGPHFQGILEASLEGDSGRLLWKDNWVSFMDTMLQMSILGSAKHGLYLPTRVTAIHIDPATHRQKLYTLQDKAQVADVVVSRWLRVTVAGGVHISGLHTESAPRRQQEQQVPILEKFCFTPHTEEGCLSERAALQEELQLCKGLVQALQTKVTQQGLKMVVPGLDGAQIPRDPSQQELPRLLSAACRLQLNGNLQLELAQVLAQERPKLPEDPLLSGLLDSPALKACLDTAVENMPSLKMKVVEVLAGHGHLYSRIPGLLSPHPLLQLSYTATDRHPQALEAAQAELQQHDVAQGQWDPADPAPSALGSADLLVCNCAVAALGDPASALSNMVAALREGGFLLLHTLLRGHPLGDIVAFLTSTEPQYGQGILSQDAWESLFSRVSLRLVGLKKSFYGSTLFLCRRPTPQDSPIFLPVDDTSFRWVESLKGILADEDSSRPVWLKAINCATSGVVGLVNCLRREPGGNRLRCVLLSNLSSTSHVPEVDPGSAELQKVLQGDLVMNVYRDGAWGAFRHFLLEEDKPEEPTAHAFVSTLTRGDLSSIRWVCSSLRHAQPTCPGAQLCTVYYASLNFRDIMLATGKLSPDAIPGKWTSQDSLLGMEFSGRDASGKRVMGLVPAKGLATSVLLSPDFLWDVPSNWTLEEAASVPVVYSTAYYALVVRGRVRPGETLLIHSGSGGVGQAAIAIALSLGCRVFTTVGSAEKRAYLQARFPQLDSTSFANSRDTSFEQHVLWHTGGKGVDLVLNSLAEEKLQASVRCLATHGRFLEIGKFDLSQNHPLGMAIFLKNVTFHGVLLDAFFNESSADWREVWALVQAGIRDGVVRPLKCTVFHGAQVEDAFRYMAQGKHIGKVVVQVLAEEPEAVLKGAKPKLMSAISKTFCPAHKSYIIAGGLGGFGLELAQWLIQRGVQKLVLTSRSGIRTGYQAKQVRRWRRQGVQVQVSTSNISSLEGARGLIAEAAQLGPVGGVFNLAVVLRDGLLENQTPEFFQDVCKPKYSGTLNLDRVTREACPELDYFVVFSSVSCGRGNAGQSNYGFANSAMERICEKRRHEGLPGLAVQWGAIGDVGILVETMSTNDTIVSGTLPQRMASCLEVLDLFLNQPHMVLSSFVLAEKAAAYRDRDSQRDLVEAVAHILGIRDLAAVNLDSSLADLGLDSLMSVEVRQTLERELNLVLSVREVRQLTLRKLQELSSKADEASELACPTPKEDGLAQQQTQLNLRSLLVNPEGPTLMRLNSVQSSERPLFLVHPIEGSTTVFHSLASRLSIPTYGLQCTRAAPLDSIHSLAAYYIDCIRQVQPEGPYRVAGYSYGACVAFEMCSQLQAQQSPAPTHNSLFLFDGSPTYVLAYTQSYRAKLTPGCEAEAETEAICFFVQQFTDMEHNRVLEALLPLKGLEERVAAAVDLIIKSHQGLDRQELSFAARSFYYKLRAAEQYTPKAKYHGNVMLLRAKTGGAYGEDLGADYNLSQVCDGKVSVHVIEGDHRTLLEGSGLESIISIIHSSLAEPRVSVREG
# FAD-linked sulfhydryl oxidase ALR, sequence (P55789 whole entry): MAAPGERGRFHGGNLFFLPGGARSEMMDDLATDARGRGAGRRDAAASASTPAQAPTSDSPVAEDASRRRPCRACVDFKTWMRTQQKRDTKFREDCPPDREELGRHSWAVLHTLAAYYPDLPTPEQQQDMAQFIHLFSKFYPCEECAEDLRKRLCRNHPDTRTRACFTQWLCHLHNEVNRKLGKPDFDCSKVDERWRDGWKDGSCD
compound,measurement,setting,value
Cc1noc(C)c1S(=O)(=O)N1CCC(C(=O)NCCCN2CC(C)CC(C)C2)CC1 (stereo unspecified),EC50,[1],0.473 µM (active)
Cc1ccc2nc3c(O)n(CCc4c[nH]cn4)cnc-3c2c1,EC50,[1],1.88 µM (active)
Cc1ccc(Nc2nc(CSc3nnc(-c4ccc(F)cc4)n3C)cs2)cc1,EC50,[2],16.9 µM (active)
same,EC50,[3],15 µM (active)
same,EC50,[4],17.2 µM (active)
same,IC50,[5],15.8 µM (active)
O=C(NC(=S)NNC(=O)c1ccccc1[N+](=O)[O-])c1ccc(Br)cc1,EC50,[6],> 150 µM (not active)
same,EC50,[1],11.9 µM (active)
same,EC50,[7],11.6 µM (active)
same,EC50,[8],4.24 µM (active)
CCCc1cc(Nc2c(C)n(C)n(-c3ccccc3)c2=O)n2c(nc3ccccc32)c1C#N,IC50,[5],13.8 µM (active)
c1ccc2c(CN3CCCCCCC3)c[nH]c2c1,AC50,[9],4.22 µM (active)
same,EC50,[10],1.15 µM (active)
same,EC50,[11],> 30 µM (not active)
same,IC50,[5],12.6 µM (active)
CCn1c(N2CCN(CC(=O)Nc3cccc(C)c3C)CC2)nc2ccccc21,EC50,[1],2.11 µM (active)
CCN(CC(=O)Nc1cccc(OC)c1)c1ncnc2sc(C)c(C)c12,IC50,[5],7.24 µM (active)
O=C(c1cc2c(nc1O)CCCC2)N1CCc2c([nH]c3ccccc23)C1c1ccccc1F (stereo unspecified),IC50,[5],19.1 µM (active)
CCCc1cc(C(=O)Nc2cccc([N+](=O)[O-])c2)cs1,IC50,[12],8.66 µM (active)
O=C(CSc1nc2ccccc2[nH]1)c1ccc2c(c1)OCO2,IC50,[5],10 µM (active)
CCOc1ncccc1C(=O)NCC(c1ccccc1)N(C)C (stereo unspecified),EC50,[1],1.19 µM (active)
CN(C)CCN(C(=O)c1cccc2ccccc12)c1nc2cc3c(cc2s1)OCO3,EC50,[1],5.96 µM (active)
C=C(C)CN(CC)c1nc(N)c2c(N)nc3c(c2c1C#N)CC(=O)N3C12CC3CC(CC(C3)C1)C2,EC50,[10],1.69 µM (active)
same,EC50,[13],> 260 µM (inactive)
same,EC50,[11],> 60 µM (not active)
same,AC50,[14],7.36 µM (active)
Sc1n[nH]c(-c2cc(Cl)cc(Cl)c2)n1,AC50,[15],1.72 µM (active)
same,IC50,[5],10.5 µM (active)
Cn1c2ccccc2c(=O)c2c(=O)n(C3CCCCC3)c(-c3ccco3)nc21,EC50,[16],8.22 µM (active)
same,EC50,[1],4.73 µM (active)
CC(C)N(C)CCOC(=O)C1COc2ccccc2O1 (stereo unspecified),IC50,[5],13.8 µM (active)
COc1ccccc1Nc1ncnc2ccc(C)cc12,IC50,[5],13.8 µM (active)
Cc1ccc(C(=O)Nc2ccc(S(=O)(=O)NC3=NCCCCC3)cc2)c(C)c1,IC50,[5],10.8 µM (active)
CC(C)NC(=O)Nc1ccc2c(c1)C(=O)N([C@@H](C)CO)C[C@@H](C)[C@@H](CN(C)C(=O)CCC(F)(F)F)OCCCC[C@@H](C)O2,AC50,[17],0.969 µM (active)
same,AC50,[18],2.7 µM (active)
same,AC50,[14],0.518 µM (active)
CCCNC(=O)N1[C@H](C#N)[C@H](c2ccc(-c3ccc(C(=O)N(C)C)cc3)cc2)[C@@H]1CO,AC50,[18],0.784 µM (active)
same,AC50,[14],32.8 µM (active)
Cc1ccc(S(=O)(=O)N(C)C[C@@H]2Oc3cc(C4=CCCC4)ccc3S(=O)(=O)N([C@@H](C)CO)C[C@H]2C)cc1,AC50,[17],4.07 µM (active)
same,AC50,[18],41.6 µM (active)
same,AC50,[14],67.6 µM (active)
